Reference: the supplement of paper PMC11061612

Key:
Assay in all cases: Bliss excess, mean over the matrix (fraction); higher = more synergy
[1] = tested on: NCI-H1355 (Lung Adenocarcinoma)
Procedure, shortened: (§1)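 Bliss excess equals the observed combination effect minus the expected value EA + EB − EA·EB, where EA and EB are the effects of each agent alone. Combination Emax is the second-highest inhibition within the matrix. Inhibition was scaled from CellTiter-Glo 2.0 luminescence, with 0 set by vehicle wells and 1 by blank wells, after 72 hours of two-drug dosing of cells plated in 1536-well plates.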

[2] = tested on: MV-4-11 (Acute Myeloid Leukemia)
Procedure, shortened: as §1

[3] = tested on: Mo-T (Other Blood Carcinomas)
Procedure, shortened: as §1

[4] = tested on: KMRC-1 (Kidney Carcinoma)
Procedure, shortened: as §1

[5] = tested on: NCI-H522 (Lung Adenocarcinoma)
Procedure, shortened: as §1

[6] = tested on: ML-2 (Acute Myeloid Leukemia)
Procedure, shortened: as §1

[7] = tested on: MOLT-4 (T-Lymphoblastic Leukemia)
Procedure, shortened: as §1

[8] = tested on: A4-Fuk (B-Lymphoblastic Leukemia)
Procedure, shortened: as §1

[9] = tested on: NCI-H1993 (Lung Adenocarcinoma)
Procedure, shortened: as §1

[10] = tested on: SKN (Other Solid Carcinomas)
Procedure, shortened: as §1

SMILES | Bliss excess [1] | Bliss excess [2] | Bliss excess [3] | Bliss excess [4] | Bliss excess [5] | Bliss excess [6] | Bliss excess [7] | Bliss excess [8] | Bliss excess [9] | Bliss excess [10]
Cc1c2c(nn1C)CSCc1cc(n(C)n1)CSc1cc(c3ccccc3c1)OCCCc1c(C(=O)O)n(C)c3c-2c(Cl)ccc13 [AZD5991] + Nc1ccn([C@@H]2O[C@H](CO)[C@@H](O)C2(F)F)c(=O)n1 [Gemcitabine] (first compound max 1 µM, 7x7, partner max 0.3 µM) | -0.0333 | 0.0035 | -0.0226 | -0.0638 | 0.091 | 0.0116 | 0.0224 | -0.0182 | -0.0064 | -0.0331
Cc1nc(-c2cn3c(n2)-c2ccc(-c4cnn(C(C)(C)C(N)=O)c4)cc2OCC3)n(C(C)C)n1 [Taselisib] + O=C(Nc1ccc2[nH]nc(-c3ccncc3)c2c1)[C@@H]1CCN(CC(=O)N2CCN(c3ccc(-c4ncccn4)cc3)CC2)C1 [SCH772984] (first compound max 10 µM, 7x7, partner max 5 µM) | -0.0124 | 0.177 | 0.0526 | -0.0377 | 0.057 | 0.101 | 0.13 | 0.0883 | 0.111 | -0.0535
CS(=O)(=O)CCNCc1ccc(-c2ccc3ncnc(Nc4ccc(OCc5cccc(F)c5)c(Cl)c4)c3c2)o1 [Lapatinib] + Cn1cnc2c(F)c(Nc3ccc(Br)cc3Cl)c(C(=O)NOCCO)cc21 [Selumetinib] (first compound max 10 µM, 7x7, partner max 10 µM) | -0.0323 | 0.0464 | -0.0542 | -0.0772 | -0.0304 | -0.151 | 0.0852 | -0.045 | 0.0118 | -0.0349
C=CCn1c(=O)c2cnc(Nc3ccc(N4CCN(C)CC4)cc3)nc2n1-c1cccc(C(C)(C)O)n1 [AZD1775] + Nc1ccn([C@@H]2O[C@H](CO)[C@@H](O)C2(F)F)c(=O)n1 [Gemcitabine] (first compound max 1 µM, partner max 0.3 µM) | 0.0478 | 0.0238 | -0.0204 | -0.0495 | 0.0486 | 0.0482 | 0.0162 | 0.009 | -0.0021 | -0.0709
C[C@@H]1COCCN1c1cc(C2([S@](C)(=N)=O)CC2)nc(-c2ccnc3[nH]ccc23)n1 [AZD6738] + C1CC(C1)(C(=O)[O-])C(=O)[O-].N.N.[Pt+2] [Carboplatin] (first compound max 10 µM, 7x7, partner max 10 µM) | -0.0345 | -0.0339 | -0.0272 | -0.0289 | -0.0584 | -0.0111 | -0.013 | -0.0571 | -0.0211 | -0.0766
C[C@@H](Nc1cc(F)cc(F)c1)c1cc(C(=O)N(C)C)cc2c(=O)cc(N3CCOCC3)oc12 [AZD8186] + CC(=O)c1c(C)c2cnc(Nc3ccc(N4CCNCC4)cn3)nc2n(C2CCCC2)c1=O [Palbociclib] (first compound max 10 µM, 7x7, partner max 10 µM) | 0.0321 | 0.0769 | -0.0319 | -0.0156 | -0.0596 | 0.103 | 0.0712 | 0.138 | 0.0847 | 0.0142
C[C@@H](Oc1cc(-c2cnn(C3CCNCC3)c2)cnc1N)c1c(Cl)ccc(F)c1Cl [Crizotinib] + CC1=C(C(=CC=C1)Cl)NC(=O)C2=CN=C(S2)NC3=CC(=NC(=N3)C)N4CCN(CC4)CCO [Dasatinib] (first compound max 10 µM, 7x7, partner max 2 µM) | -0.0431 | 0.0161 | -0.0588 | 0.0644 | -0.0033 | -0.0165 | -0.0209 | -0.0089 | -0.0147 | 0.0295
CC1(C)CCC(CN2CCN(c3ccc(C(=O)NS(=O)(=O)c4ccc(NCC5CCOCC5)c([N+](=O)[O-])c4)c(Oc4cnc5[nH]ccc5c4)c3)CC2)=C(c2ccc(Cl)cc2)C1 [Venetoclax] + CS(=O)(=O)CCNCc1ccc(-c2ccc3ncnc(Nc4ccc(OCc5cccc(F)c5)c(Cl)c4)c3c2)o1 [Lapatinib] (first compound max 1 µM, 7x7, partner max 10 µM) | -0.0548 | 0.0293 | -0.0092 | -0.0584 | -0.0378 | 0.146 | 0.0967 | -0.0406 | -0.0311 | -0.0497
CN(CCO)CC[C@H](CSc1ccccc1)Nc1ccc(S(=O)(=O)NC(=O)c2ccc(N3CCC([C@@H](O)c4ccccc4-c4ccc(Cl)cc4)CC3)cc2)cc1S(=O)(=O)C(F)(F)F [AZD4320] + CS(=O)(=O)CCNCc1ccc(-c2ccc3ncnc(Nc4ccc(OCc5cccc(F)c5)c(Cl)c4)c3c2)o1 [Lapatinib] (first compound max 1 µM, 7x7, partner max 10 µM) | 0.0077 | 0.018 | 0.0485 | 0.0223 | -0.0206 | 0.0678 | 0.0886 | -0.0065 | 0.0682 | -0.0188
